According to publication PMC11277476, “Synthesis and Biological Evaluation of Novel 2-Aroyl Benzofuran-Based Hydroxamic Acids as Antimicrotubule Agents” (International Journal of Molecular Sciences, 2024):

How the values were obtained:
HeLa cells [1] = assay: In vitro growth inhibition (resazurin, 72 h), HeLa; assay type: cell-based; conditions: Homo sapiens, concentration inhibiting tumor cell proliferation by 50%, mean ± SE
MDA-MB-231 cells = assay: In vitro growth inhibition (resazurin, 72 h), MDA-MB-231; assay type: cell-based; conditions: Homo sapiens, mean ± SE
bovine brain tubulin = assay: Inhibition of tubulin polymerization (turbidimetric); assay type: biochemical; conditions: tubulin at 10 μM; 20 min incubation at 30 °C; read-out: Tubulin Assembly IC50 ± SD
Method: (§1) Bovine brain tubulin was purified as described previously. To evaluate the effects of the compounds on tubulin assembly in vitro [77], varying concentrations were preincubated with 10 μM tubulin in 0.8 M monosodium glutamate (pH 6.6) at 30 °C, and the reaction mixtures were then cooled to 0 °C. After addition of GTP, the mixtures were transferred to 0 °C cuvettes in Beckman Coulter (Brea, CA, USA) DU-7400/DU-7500 recording spectrophotometers equipped with electronic temperature controllers and were warmed to 30 °C, and the assembly of tubulin was observed turbidimetrically. […] Inhibition of colchicine binding to tubulin was measured as described before, except that the reaction mixtures contained 0.5 μM tubulin and 5 μM each of [^3H]colchicine and test compound. Only one DEAE-cellulose filter was used per sample, and filtration was via gravity.

[2] = test system: tubulin (colchicine site); assay: Inhibition of [3H]colchicine binding to tubulin; parameters: species or system bovine; conditions: tubulin 0.5 µM, [3H]colchicine 5 µM, tested compound 5 µM
Method: as §1

HT-29 cells [3] = assay: Cell cycle analysis (PI, flow cytometry); assay type: cell-based, human; conditions: 250 nM for 24 h (figure legend)
Method: HT29 cells were treated with the indicated compounds for 24 h and then harvested and fixed in 70% ice-cold ethanol for 24 h. The cells were next treated with a 0.1% v/v solution of Triton X-100 in phosphate buffered saline (PBS) containing 10 μg/mL RNAse A and 20 μg/mL PI. The cells were incubated at room temperature for 30 min and then analyzed on a BD FACS Celesta^TM Flow Cytometer (BD Bioscience, Franklin Lakes, NJ, USA) in the FL3 channel. DNA histograms were analyzed using FlowJo_v10.7.1 software (BD Bioscience, Franklin Lakes, NJ, USA).

HT-29 cells [4] = assay: Annexin V-PI flow cytometric analysis of apoptosis, HT-29; assay type: cell-based, human; conditions: 96 h
Method: (§2) The quantification of apoptosis induced by the test compounds was carried out with flow cytometric analysis using the Annexin-V Fluos kit (Roche Diagnostics, Milan, Italy) following the manufacturer’s instructions. Cancer cells treated with the test compounds for the indicated time points and concentrations were then labeled with annexin V/FITC and PI and analyzed with BD FACS Celesta^TM Flow Cytometer (BD Bioscience, Franklin Lakes, NJ, USA) using the FL1 and FL3 channel, respectively, and FlowJo_v10.7.1 software.

HeLa cells [5] = assay: Annexin V-PI flow cytometric analysis of apoptosis, HeLa; assay type: cell-based, human; conditions: 48 h, lower dose tested 25 nM
Method: as §2

A549 cells = assay: In vitro growth inhibition (resazurin, 72 h), A549; assay type: cell-based; conditions: Homo sapiens, mean ± SE
HT-29 cells [6] = assay: In vitro growth inhibition (resazurin, 72 h), HT-29; assay type: cell-based; conditions: Homo sapiens, mean ± SE
MCF-7 cells = assay: In vitro growth inhibition (resazurin, 72 h), MCF-7; assay type: cell-based; conditions: Homo sapiens, MCF7, mean ± SE
human recombinant HDAC6 = molecular target: T1, human recombinant HDAC6 (Homo sapiens, UniProt Q9UBN7); assay: HDAC isoform inhibition, fluorogenic substrate, HDAC6; assay type: biochemical; conditions: mean ± SE, read-out: IC50 (µM) hHDAC6
T1 construct: purchased BPS Bioscience 50056
T1 sequence (Q9UBN7 1-1215): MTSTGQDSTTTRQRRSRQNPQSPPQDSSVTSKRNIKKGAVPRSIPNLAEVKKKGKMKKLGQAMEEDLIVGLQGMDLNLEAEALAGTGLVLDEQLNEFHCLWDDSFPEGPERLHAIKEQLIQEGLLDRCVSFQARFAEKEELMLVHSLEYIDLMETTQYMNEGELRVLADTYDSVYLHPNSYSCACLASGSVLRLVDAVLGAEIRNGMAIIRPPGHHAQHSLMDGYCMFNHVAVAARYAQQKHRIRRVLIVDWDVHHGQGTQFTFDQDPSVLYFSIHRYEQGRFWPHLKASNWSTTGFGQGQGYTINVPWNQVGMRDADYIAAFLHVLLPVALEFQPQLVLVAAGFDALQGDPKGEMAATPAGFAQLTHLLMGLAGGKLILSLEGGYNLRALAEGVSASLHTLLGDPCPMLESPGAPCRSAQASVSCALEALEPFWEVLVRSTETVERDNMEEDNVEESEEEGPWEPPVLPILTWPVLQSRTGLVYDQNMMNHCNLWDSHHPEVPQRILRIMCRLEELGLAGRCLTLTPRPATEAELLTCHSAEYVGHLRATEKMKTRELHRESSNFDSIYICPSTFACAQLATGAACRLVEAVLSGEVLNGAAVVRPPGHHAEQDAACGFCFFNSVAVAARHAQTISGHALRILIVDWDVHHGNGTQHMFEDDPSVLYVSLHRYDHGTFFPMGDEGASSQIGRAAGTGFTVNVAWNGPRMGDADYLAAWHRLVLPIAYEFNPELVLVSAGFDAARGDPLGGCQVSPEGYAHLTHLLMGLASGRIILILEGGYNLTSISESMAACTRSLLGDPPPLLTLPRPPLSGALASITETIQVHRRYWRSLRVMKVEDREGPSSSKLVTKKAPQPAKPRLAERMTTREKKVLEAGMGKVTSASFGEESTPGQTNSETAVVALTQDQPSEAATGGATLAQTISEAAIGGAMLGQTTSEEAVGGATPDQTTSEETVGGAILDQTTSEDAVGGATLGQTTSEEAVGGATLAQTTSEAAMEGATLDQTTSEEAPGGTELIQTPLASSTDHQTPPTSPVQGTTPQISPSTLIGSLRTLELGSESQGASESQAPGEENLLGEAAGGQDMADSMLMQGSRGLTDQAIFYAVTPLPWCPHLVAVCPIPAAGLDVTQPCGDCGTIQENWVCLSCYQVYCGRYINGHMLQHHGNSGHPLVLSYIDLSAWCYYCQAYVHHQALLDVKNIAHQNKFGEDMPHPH
Method: Further experiments were also carried out to evaluate the inhibitory activities of test compounds on selected HDAC isoforms. […] Following an incubation of 15 min at RT, fluorescence was measured in an EnSight multimodal plate reader (PerkinElmer, Boston, MA, USA) with an excitation wavelength of 360 nm and an emission wavelength of 450 nm.

[7] = test system: acetylated histone H3 (Ac-H3K9) in HT-29 cells; assay: Western blot of acetylated histone H3 (Ac-H3K9) in HT-29 cells; assay type: cell-based, human; conditions: 10 µM, 6 h
Method: HT-29 cells were treated with selected compounds for 6 h at 10 µM, lysed, and then processed as previously described.
Antibodies directed against total histone H3 and its acetylated form (Ac-H3K9) were purchased from Cell Signaling Technology, Danvers, Massachusetts, while anti-vinculin antibody was purchased from Santa Cruz Biotechnology. Membranes were visualized using ECL select (GE Healthcare), and images were acquired using the iBright FL1500 Imaging System (Thermo Fisher Scientific, Waltham, MA, USA). Anti-vinculin (1:25,000, Santa Cruz Biotechnology, Dallas, TX, USA) was used as loading controls.

[8] = test system: human peripheral blood mononuclear cells (PBMC), not stimulated with PHA; assay: Cytotoxicity in resting PBMC (resazurin, 72 h); assay type: cell-based; conditions: mean ± SEM
Text: (§3) Peripheral blood mononuclear cells (PBMC), obtained from human peripheral blood (leucocyte-rich plasma-buffy coats) of healthy volunteers using a Lymphoprep^TM (Serumwerk Bernburg AG) gradient, were used for the evaluation of the cytotoxic potential of compounds in normal human cells.
(§4) After extensive washing with saline solution (Hank’s Buffer Saline Solution, BioConcept, Allschwil, Switzerland), quiescent PBMCs were resuspended (1.0 × 10^6 cells/mL) in RPMI-1640 medium supplemented with 10% FBS. To evaluate cytotoxicity in proliferating PBMCs cultures, cells were resuspended at a concentration of 5 × 10^5 cells/mL in a growth medium containing […] of PHA (Irvine Scientific, Santa Ana, CA, USA). The same cellular density was utilized for resting PBMC cultures, without the addition of PHA. The tested compounds were added at different concentrations, and after a 72 h incubation, cell viability was determined using the resazurin test as described above.

[9] = test system: human peripheral blood mononuclear cells (PBMC) stimulated with PHA; assay: Cytotoxicity in PHA-stimulated PBMC (resazurin, 72 h); assay type: cell-based; conditions: mean ± SEM
Text: as §3, §4

SMILES	IC50 (HeLa cells [1])	IC50 (MDA-MB-231 cells)	IC50 (bovine brain tubulin)	Colchicine Binding % Inhibition ± SD [2]	Percentage of HT-29 cells in G1 phase (HT-29 cells [3])	Percentage of HT-29 cells in G2/M phase (HT-29 cells [3])	Percentage of HT-29 cells in S phase (HT-29 cells [3])	induction of apoptosis / cell death (annexin V/PI), in words (HT-29 cells [4])	cytotoxic effect (annexin V/PI), in words (HeLa cells [5])	IC50 (A549 cells)	IC50 (HT-29 cells [6])	IC50 (MCF-7 cells)	IC50 (human recombinant HDAC6)	acetylated histone H3 (Ac-H3K9) level, Western blot [7]	GI50 [8]	GI50 [9]
COc1ccc(/C=C\c2cc(OC)c(OC)c(OC)c2)cc1O [CA-4, combretastatin A-4, reference compound]	4.6 ± 0.1 nM	[…]	[…]	98 ± 2%	41.83%	27.38%	30.79%	completely resistant	greatest cytotoxic effects at the lower dose tested							
COc1cc2oc(C(=O)c3ccccc3OC)c(C)c2cc1/C=C/C(=O)NO [Compound 6f, (E)-N-Hydroxy-3-(6-methoxy-2-(2-methoxybenzoyl)-3-methylbenzofuran-5-yl)acrylamide]	3.9 ± 0.01 nM	41.9 ± 2.33 nM	1200 ± 100 nM	76 ± 2%	6.12%	87.54%	6.34%	able to induce cell apoptosis		168 ± 5.31 nM	75.3 ± 3.09 nM	24 ± 8 nM	6.12 ± 0.41 µM	significantly increased acetylated histone H3 (Ac-H3K9)	> 10 µM	0.51 ± 0.1 µM
COc1cc2oc(C(=O)c3ccccc3)c(C)c2cc1/C=C/C(=O)NO [Compound 6g, (E)-3-(2-Benzoyl-6-methoxy-3-methylbenzofuran-5-yl)-N-hydroxyacrylamide]	0.36 ± 0.01 nM	23.9 ± 0.77 nM	690 ± 100 nM	86 ± 5%	34.91%	40.74%	24.35%	able to induce cell apoptosis	greatest cytotoxic effects at the lower dose tested	36.7 ± 0.91 nM	80.3 ± 1.31 nM	30 ± 0.7 nM	10.2 ± 0.7 µM		> 10 µM	0.15 ± 0.02 µM
COc1cc2oc(C(=O)c3cc(OC)c(OC)c(OC)c3)cc2cc1/C=C/C(=O)NO [Compound 6i, (E)-N-Hydroxy-3-(6-methoxy-2-(3,4,5-trimethoxybenzoyl)benzofuran-5-yl)acrylamide]	14.8 ± 0.32 nM	93.7 ± 2.04 nM	1600 ± 300 nM	43 ± 4%	4.13%	91.07%	4.79%	able to induce cell apoptosis		304 ± 1.46 nM	272 ± 2.03 nM	69 ± 6 nM	5.16 ± 0.34 µM	significantly increased acetylated histone H3 (Ac-H3K9)	> 10 µM	2.32 ± 0.23 µM
